Reference: the supplement of paper PMC7695840
Structures can show the parent of a compound that is named as a salt.

Columns and labels:
[1] = test system: Staphylococcus aureus MW2 (mecA+); test: IC50 (growth, competition assay); settings: cefoxitin: subinhibitory
Outline: (§1)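 Signals from DsRed (540/590) and GFP (485/520) were scaled on every plate between single-strain control medians, with No Treatment then set to 0.5. The cells were a 1:1 mix of pre-induced fluorescent S. aureus MW2 strains with and without the resistance gene, grown unshaken for 20 h at 37 °C and 90% humidity in LB in 1536-well plates under a subinhibitory drug dose set each day. Each strain's IC50 was defined as the dose halving the No Treatment signal, or the maximal signal.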

[2] = test system: Staphylococcus aureus MW2 delta-mecA (mecA-); test: IC50 (growth, competition assay); settings: cefoxitin: subinhibitory
Outline: as §1

Row | Compound | IC50 ([1]; fluorescent label: DsRed) [µM] | IC50 ([1]; fluorescent label: GFP) [µM] | IC50 ([2]; fluorescent label: DsRed) [µM] | IC50 ([2]; fluorescent label: GFP) [µM]
1 | O=C(O[C@@H]1Cc2c(O)cc(O)cc2O[C@@H]1c1cc(O)c(=O)c2c(O)c(O)cc([C@H]3Oc4cc(O)cc(O)c4C[C@H]3OC(=O)c3cc(O)c(O)c(O)c3)c2c1)c1cc(O)c(O)c(O)c1 [THEAFLAVIN DIGALLATE] | > 150 | > 150 | 83.8 | 57.3
2 | CN(C)c1ccc(C(=C2C=CC(=[N+](C)C)C=C2)c2ccc(N(C)C)cc2)cc1 [Crystal violet] | 0.691 | 0.758 | < 0.498 | < 0.498
3 | Cc1cc(C2CCCCC2)n(O)c(=O)c1 [Ciclopirox (Penlac)] | 19 | 30.1 | 29.7 | 29.5
4 | C[N+](C)(C)CC(O)CC(=O)[O-] (racemic) [DL-Carnitine hydrochloride] | > 150 | > 150 | > 150 | 139
5 | NS(=O)(=O)c1ccc(-n2nc(C(F)(F)F)cc2-c2ccc(Cl)cc2)cc1 [SC-236] | 94.1 | 97.3 | 26.4 | 16.3
6 | CCOC(=O)CCC(=O)O[C@H]1[C@H](O[C@@H]2[C@@H](C)[C@H](O[C@H]3C[C@@](C)(OC)[C@@H](O)[C@H](C)O3)[C@@H](C)C(=O)O[C@H](CC)[C@@](C)(O)[C@H](O)[C@@H](C)C(=O)[C@H](C)C[C@@]2(C)O)O[C@H](C)C[C@@H]1N(C)C [ERYPED] | < 9.85 | < 9.85 | < 9.85 | < 9.85
7 | O=c1[nH]c(=O)n([C@H]2C[C@H](O)[C@@H](CO)O2)cc1C(F)(F)F [VIROPTIC] | 59 | 108 | < 9.85 | < 9.85
8 | Cc1onc(-c2ccccc2Cl)c1C(=O)N[C@@H]1C(=O)N2[C@@H]1SC(C)(C)[C@@H]2C(=O)O [Cloxacillin sodium] | < 9.85 | < 9.85 | < 9.85 | < 9.85
9 | N[C@@H]1CCCN(c2c(/C=C3\SC(=O)NC3=O)cccc2-c2ccccc2)C1 [AZD1208] | 111 | 101 | 26.7 | 22.8
10 | CC(C)(Sc1ccc(CCN(CCCCC2CCCCC2)C(=O)NC2CCCCC2)cc1)C(=O)O [GW7647] | 14.3 | 13.1 | < 9.85 | < 9.85
11 | Cn1nnnc1SCC1=C(C(=O)O)N2C(=O)[C@@H](NC(=O)[C@H](O)c3ccccc3)[C@H]2SC1 [CEFAMANDOLE SODIUM] | 53.2 | 52.5 | < 9.85 | < 9.85
12 | Nc1ccn([C@@H]2O[C@H](CO)[C@@H](O)C2(F)F)c(=O)n1 [Gemcitabine hydrochloride] | < 9.85 | < 9.85 | < 9.85 | < 9.85
13 | Clc1ccc(COC(Cn2ccnc2)c2ccc(Cl)cc2Cl)c(Cl)c1 (configuration not stated) [MONISTAT] | < 9.85 | < 9.85 | < 9.85 | < 9.85
14 | CC[C@H](C)[C@H](N)C1=N[C@H](C(=O)N[C@@H](CC(C)C)C(=O)N[C@H](CCC(=O)O)C(=O)N[C@H](C(=O)N[C@H]2CCCCNC(=O)[C@H](CC(N)=O)NC(=O)[C@@H](CC(=O)O)NC(=O)[C@H](Cc3cnc[nH]3)NC(=O)[C@@H](Cc3ccccc3)NC(=O)[C@H]([C@@H](C)CC)NC(=O)[C@@H](CCCN)NC2=O)[C@@H](C)CC)CS1 [BACITRACIN] | > 150 | > 150 | 37.8 | 59.4
15 | C[C@@H]1CN(c2c(F)c(N)c3c(=O)c(C(=O)O)cn(C4CC4)c3c2F)C[C@H](C)N1 [Sparfloxacin] | 0.78 | 0.746 | < 0.498 | < 0.498
16 | Cc1cc2nc3c(=O)[nH]c(=O)nc-3n(C[C@H](O)[C@H](O)[C@H](O)CO)c2cc1C [Riboflavin (Vitamin B2)] | > 150 | > 150 | > 150 | > 150
17 | O=C(/C=C/c1ccc(O)c(O)c1)OCCc1ccccc1 [Caffeic acid phenethyl ester] | 57.7 | 88.4 | 22.9 | 19.4
18 | OCCN1CCN(CCCN2c3ccccc3Sc3ccc(Cl)cc32)CC1 [Perphenazine] | 70.8 | 65.7 | 27.1 | 21.1
19 | Oc1c(Br)cc(Br)c2cccnc12 [FENILOR] | < 9.85 | 13.6 | < 9.85 | < 9.85
20 | C[C@H]1[C@H](C)CC[C@]2(C(=O)O)CC[C@]3(C)C(=CC[C@@H]4[C@@]5(C)C[C@@H](O)[C@H](O)[C@@](C)(CO)[C@@H]5CC[C@]43C)[C@H]12 [ASIATIC ACID] | 109 | > 150 | 123 | 115
21 | CCOC(=O)C1=C(C)NC(C)=C(C(=O)OC)C1c1cccc(Cl)c1Cl (configuration not stated) [Felodipine (Plendil)] | 22.6 | 31.8 | 7.13 | 6.89
22 | CCN1CCN(C(=O)N[C@@H](C(=O)N[C@@H]2C(=O)N3C(C(=O)O)=C(CSc4nnnn4C)CS[C@H]23)c2ccc(O)cc2)C(=O)C1=O [Cefoperazone (Cefobid)] | 4.66 | 6.86 | < 0.498 | < 0.498
23 | CCCCC(CC)COC(=O)CC(C(=O)OCC(CC)CCCC)S(=O)(=O)O (configuration not stated) [COLACE] | 56.6 | 52.5 | 18 | 13.5
24 | CNc1ccc2oc(C[C@H]3O[C@@]4(CC[C@H]3C)O[C@H]([C@H](C)C(=O)c3ccc[nH]3)[C@H](C)C[C@H]4C)nc2c1C(=O)O [Calcimycin] | < 9.85 | < 9.85 | < 9.85 | < 9.85
25 | COc1ccc(CCN(C)CCCOc2ccc(S(=O)(=O)c3c(C(C)C)n(C)c4ccccc34)cc2)cc1OC | 14.8 | 14.9 | < 9.85 | < 9.85
26 | O=C1c2ccccc2-c2nc3nonc3nc21 [SMER 3] | 65.9 | > 150 | 20.4 | < 9.85
27 | O=c1[nH]c(=O)n([C@H]2C[C@H](O)[C@@H](CO)O2)cc1F [Floxuridine] | < 0.498 | < 0.498 | < 0.498 | < 0.498
28 | O=C1C(SCCO)=C(SCCO)C(=O)c2ccccc21 | 11.8 | 16.3 | < 9.85 | < 9.85
